For series [1], the system named is SARS-CoV-2 (USA-WA1/2020 isolate). It is filed as cell-based.
Series [2] has as its system MLV reporter luciferase virus pseudotyped with the SARS-CoV-2 Spike protein (SARS2-S).
Series [3] deals with main viral protease (MPRO). Conditions: read-out: MPRO IC50; cited from earlier work.
In series [4] the test system is SARS2-S WT. The series can be described thus: microbe, parasite or virus in culture. It counts as cell-based, SARS-CoV-2. Particulars: Severe acute respiratory syndrome coronavirus 2, read-out: WT IC50.
The subject of series [5] is SARS-CoV-2. It counts as cell-based.
In series [6] the test system is VSV-G. Nature of the series: microbe, parasite or virus in culture. It counts as cell-based. Conditions: Vesicular stomatitis virus, read-out: VSV-G IC50.
For series [7], the system named is SARS1-S. The series can be described thus: microbe, parasite or virus in culture. It is filed as cell-based, SARS-CoV-1.
Series [8] concerns SARS2-S. The series can be described thus: microbe, parasite or virus in culture. It is filed as cell-based, SARS-CoV-2. Conditions: Severe acute respiratory syndrome coronavirus 2, read-out: SARS2-S IC50.

Several values for one entry are separate records, joined by “and”; a condition that tells them apart may be missing. Equal entries are not always repeated. Structures can show the parent of a compound that is named as a salt. Square brackets hold non-standard residues; d marks the D form. Peptide text beside a SMILES is read from it. Nle = CCCC[C@H](N)C(=O)O

`CN(C)C(=O)COC(=O)Cc1ccc(OC(=O)c2ccc(NC(=N)N)cc2)cc1` [Camostat mesylate, reference compound]: in series [1], the “activity against wild type SARS-CoV-2 (CPE)” value was “did not shown any activity”.

With `CCCC[C@@H](C=O)NC(=O)[C@H](CC(C)C)NC(=O)[C@H](CC(C)C)NC(C)=O` [SR-372, calpain inhibitor I] (Ac-Leu-Leu-[Nle]-aldehyde), in series [2], the “higher potency as compared to the best ReFRAME hit, SR-806 (VBY-825)” value is 3.5 fold; the “higher specificity as compared to the best ReFRAME hit, SR-806 (VBY-825)” value is greater than 3 fold; the “therapeutic index (TI=CC50/IC50)” value was “greater than 100”.

For the compound `CCCC[C@@H](C=O)NC(=O)[C@H](CC(C)C)NC(=O)OCc1ccccc1` [SR-914, calpeptin], the IC50 in series [3] was 10400 nM; in series [4], 3.78 nM; in series [6], greater than 20000 nM; in series [7] (Severe acute respiratory syndrome coronavirus, read-out: SARS1-S IC50), 77.2 ± 4.69 nM; in series [8], 10.9 ± 0.78 nM. The “activity in plaque assays of wild type SARS-CoV-2 infection” value in series [5] is recorded as “further confirmed”. Also, the EC50 in series [1] (read-out: EC50, SARS-CoV-2-induced CPE assay) is 174 nM and 163 nM. The “less potent against SARS1-S than against SARS2-S” value in series [7] is reported as roughly 8 fold. Moreover, in series [2], the “higher potency as compared to the best ReFRAME hit, SR-806 (VBY-825)” value amounted to 7.1 fold. For the same compound, the “higher specificity as compared to the best ReFRAME hit, SR-806 (VBY-825)” value in series [2] was “higher than 7.1 fold”. Also, the “therapeutic index (TI=CC50/IC50)” value in series [2] is “greater than 100”.

Usually IC50 stands for the concentration at which inhibition is half-maximal. In general, EC50 refers to the concentration giving half of the maximal effect.
